Literature values in patent publication US7947285B2, “Methods for preventing post endoscopic retrograde cholangiopancreatography pancreatitis” (priority 2003, dated 2011).

Assays:
[1] = test system: post-ERCP pancreatitis; settings: patients without pancreas divisum; retrospective review; cited from earlier work
[2] = test system: post-ERCP pancreatitis; settings: high-risk patients; two large controlled trials; cited from earlier work
[3] = test system: post-ERCP pancreatitis; settings: cited from earlier work
[4] = test system: post-ERCP pancreatitis; settings: prophylaxis; meta-analysis of 28 clinical trials; cited from earlier work

Compound | incidence of post-ERCP pancreatitis [1] | preventing post-ERCP pancreatitis [2] | effect on clinical course of post-ERCP pancreatitis ([3]; human, in vivo) | effect on hyperamylasemia ([3]; post-ERCP) | reducing the frequency of post-ERCP pancreatitis [4]
secretin | might decrease the incidence | – | – | – | –
C[C@@H](O)[C@@H]1NC(=O)[C@H](CCCCN)NC(=O)[C@@H](Cc2c[nH]c3ccccc23)NC(=O)[C@H](Cc2ccccc2)NC(=O)[C@@H](NC(=O)[C@H](N)Cc2ccccc2)CSSC[C@@H](C(=O)N[C@H](CO)[C@@H](C)O)NC1=O [octreotide] | – | ineffective | has not been show to alter the clinical course | reduces hyperamylasemia | –
CCOC(=O)c1ccc(OC(=O)CCCCCNC(=N)N)cc1 [gabexate] | – | ineffective | – | – | effective
